According to ChEMBL document CHEMBL6109077, “Design, synthesis and in vitro validation of bivalent binders of SARS-CoV-2 spike protein: Obeticholic, betulinic and glycyrrhetinic acids as building blocks” (Bioorg Med Chem, 2025):
Calls of active or inactive are those of the source. No cut-off for these calls is given here.

Molecular target: Glycoprotein (Vesicular stomatitis Indiana virus (strain San Juan) (VSIV)) (UniProt P03522)
Assay: Inhibition of glycoprotein in pseudotyped Vesicular stomatitis virus infected in 293T/ACE2 cells assessed as reduction in viral entry at 10 uM preincubated with virus for 1 hr followed by cell infection and measured after 48 hrs by bright-glo luciferase reporter gene assay
Type: cell-based
Conditions: time 49.0 hrs

Glycoprotein (Vesicular stomatitis Indiana virus (strain San Juan) (VSIV)), sequence (P03522 whole entry): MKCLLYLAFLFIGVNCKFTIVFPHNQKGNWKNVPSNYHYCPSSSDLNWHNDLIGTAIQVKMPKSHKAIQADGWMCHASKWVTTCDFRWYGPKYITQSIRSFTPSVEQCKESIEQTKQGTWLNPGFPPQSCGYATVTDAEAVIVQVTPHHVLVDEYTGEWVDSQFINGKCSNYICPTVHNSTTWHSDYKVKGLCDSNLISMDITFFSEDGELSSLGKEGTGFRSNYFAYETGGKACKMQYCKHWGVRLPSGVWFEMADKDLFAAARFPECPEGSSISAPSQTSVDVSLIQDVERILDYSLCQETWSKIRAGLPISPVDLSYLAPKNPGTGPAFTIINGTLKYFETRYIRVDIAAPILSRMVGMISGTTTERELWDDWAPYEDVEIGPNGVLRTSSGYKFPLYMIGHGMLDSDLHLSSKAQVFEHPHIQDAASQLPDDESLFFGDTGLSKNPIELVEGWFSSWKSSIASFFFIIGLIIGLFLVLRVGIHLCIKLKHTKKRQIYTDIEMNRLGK

| Structure (SMILES) | inhibition |
| --- | --- |
| C=C(C)[C@@H]1CC[C@]2(C(=O)OC)CC[C@@]3(C)[C@@H]4CC[C@@H]5[C@H](CC[C@H](OC(=O)CCCCc6cn(CCCCCCNC(=O)CC[C@@H](C)[C@H]7CC[C@H]8[C@@H]9[C@H](O)[C@H](CC)[C@@H]%10C[C@H](O)CC[C@]%10(C)[C@H]9CC[C@]78C)nn6)C5(C)C)[C@H]4CC[C@@H]3[C@@H]12 | inactive |
| CC[C@H]1[C@@H](O)[C@@H]2[C@H](CC[C@]3(C)[C@@H]([C@H](C)CCC(=O)NCCCCCCn4cc(CCCCC(=O)O[C@H]5CC[C@H]6[C@@H](CC[C@]7(C)[C@@H]6C(=O)C=C6[C@@H]8C[C@@](C)(C(=O)OC)CC[C@]8(C)CC[C@]67C)C5(C)C)nn4)CC[C@@H]23)[C@@]2(C)CC[C@@H](O)C[C@@H]12 | inactive |
| C=C(C)[C@@H]1CC[C@]2(C(=O)OC)CC[C@]3(C)[C@H](CC[C@@H]4[C@@]5(C)CC[C@H](OC(=O)CCCNC(=O)CC[C@@H](C)[C@H]6CC[C@H]7[C@@H]8[C@H](O)[C@H](CC)[C@@H]9C[C@H](O)CC[C@]9(C)[C@H]8CC[C@]67C)C(C)(C)[C@@H]5CC[C@]43C)[C@@H]12 | inactive |
| C=C(C)[C@@H]1CC[C@]2(C(=O)OC)CC[C@]3(C)[C@H](CC[C@@H]4[C@@]5(C)CC[C@H](OC(=O)CCCCCCCCNC(=O)CC[C@@H](C)[C@H]6CC[C@H]7[C@@H]8[C@H](O)[C@H](CC)[C@@H]9C[C@H](O)CC[C@]9(C)[C@H]8CC[C@]67C)C(C)(C)[C@@H]5CC[C@]43C)[C@@H]12 | inactive |
